Laboratory results taken from ChEMBL document CHEMBL3885861, “Open TG-GATES”.

Organism: Rattus norvegicus
Experiment: Open TG-GATES - Regimen: Single
Format: toxicity, organism-based, Sprague-Dawley
Set-up: regimen Single, gender Male, age 6 weeks
Details: in vivo, po, 0 mg/kg, route gavage, dose level Control; for APTT / Bas / Eos / Fbg / Hb / Ht / Lym / MCH / MCHC / MCV / Mono / Neu / PT / Plat / RBC / Ret / WBC: tissue Blood; for KIDNEY_L / KIDNEY_R / KIDNEY_TOTAL: tissue Kidney; for LIVER: tissue Liver; for A/G / ALP / ALT / AST / BUN / CRE / Ca / Cl / DBIL / GLC / IP / K / LDH / Na / PL / RALB / TBIL / TC / TG / TP / gamma-GTP: tissue Plasma

S=C=Nc1cccc2ccccc12 [1-NAPHTHYLISOTHIOCYANATE]
TERMINAL_BW (3 h): 224.9 g
APTT (3 h): 18.6 s
Bas (3 h): 0%
Eos (3 h): 1%
Fbg (3 h): 223 mg/dL
Hb (3 h): 13.7 g/dL
Ht (3 h): 37.8%
Lym (3 h): 78%
MCH (3 h): 22.1 pg
MCHC (3 h): 36.2%
MCV (3 h): 61 fL
Mono (3 h): 2.6%
Neu (3 h): 17.6%
PT (3 h): 11.9 s
Plat (3 h): 124.1 x10_4/uL
RBC (3 h): 619.8 x10_4/ul
Ret (3 h): 8.2%
WBC (3 h): 101.9 x10_2/uL
KIDNEY_L (3 h): 1 g
KIDNEY_R (3 h): 1 g
KIDNEY_TOTAL (3 h): 2 g
LIVER (3 h): 10.2 g
A/G (3 h): 1.6
ALP (3 h): 937 IU/L
ALT (3 h): 37.6 IU/L
AST (3 h): 73 IU/L
BUN (3 h): 11.2 mg/dL
CRE (3 h): 0.4 mg/dL
Ca (3 h): 10.9 mg/dL
Cl (3 h): 103.4 meq/L
DBIL (3 h): 0.07 mg/dL
GLC (3 h): 200.8 mg/dL
IP (3 h): 9.4 mg/dL
K (3 h): 3.9 meq/L
LDH (3 h): 189.2 IU/L
Na (3 h): 141.6 meq/L
PL (3 h): 161.6 mg/dL
RALB (3 h): 3.4 g/dL
TBIL (3 h): 0.1 mg/dL
TC (3 h): 81 mg/dL
TG (3 h): 82.2 mg/dL
TP (3 h): 5.5 g/dL
gamma-GTP (3 h): 1 IU/L
TERMINAL_BW (6 h): 218.1 g
APTT (6 h): 18.7 s
Bas (6 h): 0.2%
Eos (6 h): 0.8%
Fbg (6 h): 232.2 mg/dL
Hb (6 h): 13.4 g/dL
Ht (6 h): 37.2%
Lym (6 h): 76%
MCH (6 h): 22 pg
MCHC (6 h): 36%
MCV (6 h): 61.2 fL
Mono (6 h): 3.4%
Neu (6 h): 18.4%
PT (6 h): 11.8 s
Plat (6 h): 128 x10_4/uL
RBC (6 h): 609.2 x10_4/ul
Ret (6 h): 7.2%
WBC (6 h): 106.9 x10_2/uL
KIDNEY_L (6 h): 1 g
KIDNEY_R (6 h): 1 g
KIDNEY_TOTAL (6 h): 2 g
LIVER (6 h): 9.6 g
A/G (6 h): 1.8
ALP (6 h): 1087 IU/L
ALT (6 h): 35.6 IU/L
AST (6 h): 71.8 IU/L
BUN (6 h): 10 mg/dL
CRE (6 h): 0.4 mg/dL
Ca (6 h): 10.6 mg/dL
Cl (6 h): 103.8 meq/L
DBIL (6 h): 0.07 mg/dL
GLC (6 h): 192 mg/dL
IP (6 h): 10 mg/dL
K (6 h): 3.8 meq/L
LDH (6 h): 167.6 IU/L
Na (6 h): 141.8 meq/L
PL (6 h): 142.8 mg/dL
RALB (6 h): 3.5 g/dL
TBIL (6 h): 0.1 mg/dL
TC (6 h): 76.2 mg/dL
TG (6 h): 63.8 mg/dL
TP (6 h): 5.4 g/dL
gamma-GTP (6 h): 1 IU/L
TERMINAL_BW (9 h): 216.9 g
APTT (9 h): 17.6 s
Bas (9 h): 0.2%
Eos (9 h): 0.8%
Fbg (9 h): 234.6 mg/dL
Hb (9 h): 13.3 g/dL
Ht (9 h): 36.8%
Lym (9 h): 75%
MCH (9 h): 21.7 pg
MCHC (9 h): 36.1%
MCV (9 h): 60.1 fL
Mono (9 h): 2.2%
Neu (9 h): 20.8%
PT (9 h): 12.2 s
Plat (9 h): 121.1 x10_4/uL
RBC (9 h): 612 x10_4/ul
Ret (9 h): 6.9%
WBC (9 h): 90.1 x10_2/uL
KIDNEY_L (9 h): 0.9 g
KIDNEY_R (9 h): 1 g
KIDNEY_TOTAL (9 h): 1.9 g
LIVER (9 h): 8.8 g
A/G (9 h): 1.8
ALP (9 h): 908.4 IU/L
ALT (9 h): 28.8 IU/L
AST (9 h): 57.4 IU/L
BUN (9 h): 10.8 mg/dL
CRE (9 h): 0.4 mg/dL
Ca (9 h): 10.7 mg/dL
Cl (9 h): 103.6 meq/L
DBIL (9 h): 0.07 mg/dL
GLC (9 h): 201.4 mg/dL
IP (9 h): 10.3 mg/dL
K (9 h): 4 meq/L
LDH (9 h): 145.6 IU/L
Na (9 h): 141.8 meq/L
PL (9 h): 139 mg/dL
RALB (9 h): 3.5 g/dL
TBIL (9 h): 0.1 mg/dL
TC (9 h): 74.4 mg/dL
TG (9 h): 50.8 mg/dL
TP (9 h): 5.5 g/dL
gamma-GTP (9 h): 1 IU/L
TERMINAL_BW (24 h): 234.7 g
APTT (24 h): 17.8 s
Bas (24 h): 0.4%
Eos (24 h): 0.8%
Fbg (24 h): 222.8 mg/dL
Hb (24 h): 13.4 g/dL
Ht (24 h): 37.5%
Lym (24 h): 81.6%
MCH (24 h): 22.2 pg
MCHC (24 h): 35.6%
MCV (24 h): 62.5 fL
Mono (24 h): 3%
Neu (24 h): 13.6%
PT (24 h): 11.7 s
Plat (24 h): 128.7 x10_4/uL
RBC (24 h): 601 x10_4/ul
Ret (24 h): 6.6%
WBC (24 h): 91.3 x10_2/uL
KIDNEY_L (24 h): 1 g
KIDNEY_R (24 h): 1 g
KIDNEY_TOTAL (24 h): 2 g
LIVER (24 h): 10.8 g
A/G (24 h): 1.6
ALP (24 h): 1087.6 IU/L
ALT (24 h): 37.8 IU/L
AST (24 h): 75.8 IU/L
BUN (24 h): 15.2 mg/dL
CRE (24 h): 0.4 mg/dL
Ca (24 h): 10.8 mg/dL
Cl (24 h): 103.6 meq/L
DBIL (24 h): 0.062 mg/dL
GLC (24 h): 188.8 mg/dL
IP (24 h): 7.6 mg/dL
K (24 h): 3.9 meq/L
LDH (24 h): 214.6 IU/L
Na (24 h): 141.6 meq/L
PL (24 h): 140.4 mg/dL
RALB (24 h): 3.4 g/dL
TBIL (24 h): 0.1 mg/dL
TC (24 h): 70.8 mg/dL
TG (24 h): 100.2 mg/dL
TP (24 h): 5.6 g/dL
gamma-GTP (24 h): 1.2 IU/L
